Assay results reported in US5053070A, “Pyrimidine derivatives, preparation processes thereof, herbicide containing the same, and herbicidal compositions containing the same along with other active ingredient” (Mitsui Toatsu Chemicals, Incorporated, priority 1988, dated 1991).

How the values were obtained:
Assay type in all cases: in vivo
barnyardgrass [1] = assay: Upland soil application test (Test 2); conditions: 30 g ai/a, soil spray before emergence, 30 days later
Procedure: (§1) Resin-made 1/2500-are pots were filled with the soil of an upland field. After they were fertilized, soybean, peanut and cotton were seeded and 2-3 cm soil covering was applied. Seeds of redroot pigweed, common lambsquarters, barnyardgrass, green foxtail, large crabgrass, foxtail meadow and johnsongrass had been uniformly mixed with the soil. They were allowed to germinate in a green house. One day later (before emergence of weeds), a wettable powder prepared from a predetermined amount of each test compound in a similar manner to the method described in Formulation Example 1 was diluted with water and then sprayed evenly at an application rate equal to 10 l per are onto the surface of the soil by means of a pressure-operated ULV (ultra low volume) sprayer. Influence to the crops and weeds were observed 30 days later. The results are shown in Table 3, in which the degree of damages of each test plant and the degree of injury to each crop were determined by comparing the air-dried weights of the test plant and crop with those of the corresponding plant and crop in untreated pots and are shown in accordance with the following standard: […]

common lambsquarters = assay: Upland soil application test (Test 2); conditions: 30 g ai/a, soil spray before emergence, 30 days later
Procedure: as §1

foxtail meadow = assay: Upland soil application test (Test 2); conditions: 30 g ai/a, soil spray before emergence, 30 days later
Procedure: as §1

green foxtail = assay: Upland soil application test (Test 2); conditions: 30 g ai/a, soil spray before emergence, 30 days later
Procedure: as §1

johnsongrass = assay: Upland soil application test (Test 2); conditions: 30 g ai/a, soil spray before emergence, 30 days later
Procedure: as §1

large crabgrass = assay: Upland soil application test (Test 2); conditions: 30 g ai/a, soil spray before emergence, 30 days later
Procedure: as §1

redroot pigweed = assay: Upland soil application test (Test 2); conditions: 30 g ai/a, soil spray before emergence, 30 days later
Procedure: as §1

cotton = assay: Upland foliar application test (Test 3), crop injury; conditions: 30 g ai/a, foliar spray at 2-3 leaves, 30th day
Procedure: (§2) Resin-made 1/10000-are pots were filled with the soil of an upland field. Redroot pigweed, common lambsquarters, foxtail meadow, johnsongrass, barnyardgrass, green foxtail, large crabgrass, soybean, peanut and cotton were separately seeded and were allowed to germinate in a green house. When each plant grew to the stage of 2-3 leaves, an emulsion formulated from a predetermined amount of each test compound in a similar manner to the method described in Formulation Example 11 was diluted with water to a predetermined dilution rate and then sprayed at an application rate equal to 5 l per are onto the foliage of each plant by means of a pressure-operated ULV (ultra low volume) sprayer. Influence to the crops and weeds were observed on the 30th day after the spray of the herbicides. The results are shown in Table 4 in which the degree of damages of each test plant and the degree of injury to each crop are shown in a similar manner to Test 2.

peanut = assay: as above; conditions: 30 g ai/a, foliar spray at 2-3 leaves, 30th day
Procedure: as §2

soybean = assay: as above; conditions: 30 g ai/a, foliar spray at 2-3 leaves, 30th day
Procedure: as §2

rice [2] = assay: Treatment of soil under submerged condition, pre-emergence (Test 4), injury; conditions: 30 g ai/a granule, 30 days later
Procedure: (§3) 1/5000-are Wagner pots were filled with soil. Seeds or tubers of barnyardgrass, Monochoria vaginalis, bulrush, Sagittaria pygmaea, Cyperus seroylnus and Eleocharis kuroguwai were seeded or planted under submerged condition. Two pairs of rice seedlings (2-3 leaf stage), which had been reared in advance, were transplanted to each pot and were allowed to germinate in a green house. Each pair consisted of two rice seedlings. One day later (before emergence of weeds), each pot was treated with a granule which had been prepared by processing a predetermined amount of the test composition in accordance with a similar method to the method described in Formulation Example 9. The state of emergence of weeds and the state of injury of rice were observed 30 days later.
In the table, the degrees of damages of the test plants and the degrees of injury of rice are shown in a similar manner to Example 2.

Sagittaria pygmaea = assay: Treatment of soil under submerged condition, post-emergence (Test 5); conditions: 30 g ai/a granule, 30 days later
Procedure: as §3, with “serroylnus” for “seroylnus”, “grow” for “germinate”, “When the barnyardgrass grew to two-leaf stage,” for “One day later (before emergence of weeds),”
(§4) In the table, the degrees of damages of the test plants and the degrees of injury of the rice are shown in a similar manner to Example 2.

barnyardgrass [3] = assay: as above; conditions: 30 g ai/a granule, post-emergence (barnyardgrass two-leaf stage), 30 days later
Procedure: as §3, with “serroylnus” for “seroylnus”, “grow” for “germinate”, “When the barnyardgrass grew to two-leaf stage,” for “One day later (before emergence of weeds),”
as §4

bulrush = assay: as above; conditions: 30 g ai/a granule, 30 days later
Procedure: as §3, with “serroylnus” for “seroylnus”, “grow” for “germinate”, “When the barnyardgrass grew to two-leaf stage,” for “One day later (before emergence of weeds),”
as §4

rice [4] = assay: Treatment of soil under submerged condition, post-emergence (Test 5), injury; conditions: 30 g ai/a granule, 30 days later
Procedure: as §3, with “serroylnus” for “seroylnus”, “grow” for “germinate”, “When the barnyardgrass grew to two-leaf stage,” for “One day later (before emergence of weeds),”
as §4

| Compound | Herbicidal effects Barnyardgrass (barnyardgrass [1]) | Herbicidal effects Common lambsquarters (common lambsquarters) | Herbicidal effects Foxtail meadow (foxtail meadow) | Herbicidal effects Green foxtail (green foxtail) | Herbicidal effects Johnsongrass (johnsongrass) | Herbicidal effects Large crabgrass (large crabgrass) | Herbicidal effects Redroot pigweed (redroot pigweed) | Injury Cotton (cotton) | Injury Peanut (peanut) | Injury Soybean (soybean) | Injury Rice (rice [2]) | Herbicidal effects Sagittaria Pygmaea (Sagittaria pygmaea) | Herbicidal effects Barnyardgrass (barnyardgrass [3]) | Herbicidal effects Bulrush (bulrush) | Injury Rice (rice [4]) |
| --- | --- | --- | --- | --- | --- | --- | --- | --- | --- | --- | --- | --- | --- | --- | --- |
| COc1cc(OC)nc(Oc2ccccc2C=NOCc2cccc3ccccc23)n1 [compound 22] | 3 (11-40 (Medium damages)) | 3 (11-40 (Medium damages)) | 4 (6-10 (Severe damages)) | 4 (6-10 (Severe damages)) | 4 (6-10 (Severe damages)) | 3 (11-40 (Medium damages)) | 3 (11-40 (Medium damages)) | 0 (91-100 (No damages)) | 0 (91-100 (No damages)) | 0 (91-100 (No damages)) | 0 (91-100 (No damages)) | 3 (11-40 (Medium damages)) | 5 (0-5 (Death)) | 4 (6-10 (Severe damages)) | 0 (91-100 (No damages)) |
| C=C(C)CON=Cc1ccccc1Oc1nc(OC)cc(OC)n1 [compound 5] | 5 (0-5 (Death)) | 4 (6-10 (Severe damages)) | 5 (0-5 (Death)) | 5 (0-5 (Death)) | 5 (0-5 (Death)) | 5 (0-5 (Death)) | 4 (6-10 (Severe damages)) | 0 (91-100 (No damages)) | 0 (91-100 (No damages)) | 0 (91-100 (No damages)) | 0 (91-100 (No damages)) | 5 (0-5 (Death)) | 5 (0-5 (Death)) | 5 (0-5 (Death)) | 0 (91-100 (No damages)) |
| CC=CCON=Cc1ccccc1Oc1nc(OC)cc(OC)n1 [compound 8] | 4 (6-10 (Severe damages)) | 4 (6-10 (Severe damages)) | 5 (0-5 (Death)) | 5 (0-5 (Death)) | 5 (0-5 (Death)) | 4 (6-10 (Severe damages)) | 5 (0-5 (Death)) | 0 (91-100 (No damages)) | 0 (91-100 (No damages)) | 0 (91-100 (No damages)) | 1 (71-90 (Slight damages)) | 5 (0-5 (Death)) | 5 (0-5 (Death)) | 5 (0-5 (Death)) | 1 (71-90 (Slight damages)) |
| CCCC=CCON=Cc1ccccc1Oc1nc(OC)cc(OC)n1 [compound 25] | 4 (6-10 (Severe damages)) | 4 (6-10 (Severe damages)) | 5 (0-5 (Death)) | 5 (0-5 (Death)) | 5 (0-5 (Death)) | 5 (0-5 (Death)) | 4 (6-10 (Severe damages)) | 0 (91-100 (No damages)) | 0 (91-100 (No damages)) | 0 (91-100 (No damages)) | 1 (71-90 (Slight damages)) | 3 (11-40 (Medium damages)) | 4 (6-10 (Severe damages)) | 5 (0-5 (Death)) | 1 (71-90 (Slight damages)) |
| COc1cc(OC)nc(Oc2ccccc2C=NOC(C)c2ccccc2)n1 (stereo not drawn) [compound 21] | 3 (11-40 (Medium damages)) | 3 (11-40 (Medium damages)) | 3 (11-40 (Medium damages)) | 4 (6-10 (Severe damages)) | 4 (6-10 (Severe damages)) | 4 (6-10 (Severe damages)) | 3 (11-40 (Medium damages)) | 0 (91-100 (No damages)) | 0 (91-100 (No damages)) | 0 (91-100 (No damages)) | 0 (91-100 (No damages)) | 3 (11-40 (Medium damages)) | 3 (11-40 (Medium damages)) | 3 (11-40 (Medium damages)) | 0 (91-100 (No damages)) |
| COc1cc(OC)nc(Oc2ccccc2C=NOCc2ccccc2Cl)n1 [compound 16] | 3 (11-40 (Medium damages)) | 3 (11-40 (Medium damages)) | 3 (11-40 (Medium damages)) | 3 (11-40 (Medium damages)) | 3 (11-40 (Medium damages)) | 4 (6-10 (Severe damages)) | 3 (11-40 (Medium damages)) | 0 (91-100 (No damages)) | 0 (91-100 (No damages)) | 0 (91-100 (No damages)) | 0 (91-100 (No damages)) | 3 (11-40 (Medium damages)) | 4 (6-10 (Severe damages)) | 4 (6-10 (Severe damages)) | 0 (91-100 (No damages)) |
